This passage reports IC50 results from patent US12540129B2, “KIF18A inhibitors” (AMGEN INC., priority 2019, dated 2026).

What is called IC50 is the midpoint of a concentration-inhibition curve.

The target in the experiment is T1, Recombinant human KIF18A (1-467 His-tagged) protein (Homo sapiens, UniProt Q8NI77).
T1 construct: Recombinant human KIF18A (1-467 His-tagged) protein; His; made in house
T1 sequence (Q8NI77 1-467): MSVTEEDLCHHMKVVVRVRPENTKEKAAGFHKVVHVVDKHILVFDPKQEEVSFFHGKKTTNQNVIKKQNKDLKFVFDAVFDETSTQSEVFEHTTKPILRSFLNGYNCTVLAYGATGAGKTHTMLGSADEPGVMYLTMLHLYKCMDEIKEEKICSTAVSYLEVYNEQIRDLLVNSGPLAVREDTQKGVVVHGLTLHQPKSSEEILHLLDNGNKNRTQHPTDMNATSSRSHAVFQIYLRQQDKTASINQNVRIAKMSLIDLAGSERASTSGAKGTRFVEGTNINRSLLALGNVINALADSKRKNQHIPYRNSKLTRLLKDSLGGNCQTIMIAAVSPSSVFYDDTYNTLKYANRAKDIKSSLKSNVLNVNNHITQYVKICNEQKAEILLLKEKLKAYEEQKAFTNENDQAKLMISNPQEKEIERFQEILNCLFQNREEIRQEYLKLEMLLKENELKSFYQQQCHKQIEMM
T1 sequence (P02550 whole entry partner): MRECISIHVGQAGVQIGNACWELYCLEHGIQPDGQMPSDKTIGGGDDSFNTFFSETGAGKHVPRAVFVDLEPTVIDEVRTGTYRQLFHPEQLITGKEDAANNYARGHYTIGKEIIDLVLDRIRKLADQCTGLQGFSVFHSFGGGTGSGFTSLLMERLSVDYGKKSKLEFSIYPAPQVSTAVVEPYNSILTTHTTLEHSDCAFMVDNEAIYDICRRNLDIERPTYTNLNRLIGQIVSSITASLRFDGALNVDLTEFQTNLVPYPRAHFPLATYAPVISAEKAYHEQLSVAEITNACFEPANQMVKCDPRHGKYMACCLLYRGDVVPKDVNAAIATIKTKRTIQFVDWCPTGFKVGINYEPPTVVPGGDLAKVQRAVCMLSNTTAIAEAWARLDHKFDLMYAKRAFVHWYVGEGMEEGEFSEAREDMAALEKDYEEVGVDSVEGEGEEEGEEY
T1 sequence (P02554 whole entry partner): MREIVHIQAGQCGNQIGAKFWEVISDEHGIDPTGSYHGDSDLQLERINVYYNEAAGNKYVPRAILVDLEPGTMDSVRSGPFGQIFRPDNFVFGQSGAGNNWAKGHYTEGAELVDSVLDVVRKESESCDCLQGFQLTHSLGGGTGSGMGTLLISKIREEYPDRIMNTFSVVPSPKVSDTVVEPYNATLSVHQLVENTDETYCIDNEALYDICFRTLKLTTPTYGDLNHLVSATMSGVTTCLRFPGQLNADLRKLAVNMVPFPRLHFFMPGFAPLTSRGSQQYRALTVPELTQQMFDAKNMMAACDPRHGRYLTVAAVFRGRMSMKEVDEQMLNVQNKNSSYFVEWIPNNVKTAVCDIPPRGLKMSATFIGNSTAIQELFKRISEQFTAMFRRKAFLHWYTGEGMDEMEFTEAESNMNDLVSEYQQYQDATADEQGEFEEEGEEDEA
As to the kind of experiment: KIF18A Enzyme Assay: microtubule-stimulated ATPase activity (ADP-Glo). It is filed as biochemical. The following applies: 30 nM KIF18A, 75 μM ATP. In short, it runs like this: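 Recombinant human KIF18A (1-467, His-tagged), baculovirus-expressed, assayed for microtubule-stimulated ATPase activity; ADP formed detected by ADP-Glo luminescence. Compounds tested as 22-point 2-fold serial dilutions in DMSO. IC50 from four-parameter logistic fit.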
(ADP-Glo turns the ADP formed in a reaction into a luminescent signal.)
`COc1ccc(NC(=O)c2ccc(NC(C)(C)CO)nc2N2CCC3(CC2)CC3)cc1S(=O)(=O)NC(C)(C)C` [Example 105-20, N-(3-(N-(tert-butyl)sulfamoyl)-4-methoxyphenyl)-6-((1-hydroxy-2-methylpropan-2-yl)amino)-2-(6-azaspiro[2.5]octan-6-yl)nicotinamide]: the IC50 stood at 162 nM.
As for `CC(C)(C)NS(=O)(=O)c1cc(F)cc(NC(=O)c2ccc(NC(C)(C)CO)nc2N2CCC3(CC2)CC3)c1` [Example 105-21, N-(3-(N-(tert-butyl)sulfamoyl)-5-fluorophenyl)-6-((1-hydroxy-2-methylpropan-2-yl)amino)-2-(6-azaspiro[2.5]octan-6-yl)nicotinamide], the half-maximal inhibitory concentration (IC50) came to 108 nM.
Turning to `COc1cc(NC(=O)c2ccc(NC(C)(C)CO)nc2N2CCC3(CC2)CC3)cc(S(=O)(=O)NC(C)(C)C)c1` [Example 105-22, N-(3-(N-(tert-butyl)sulfamoyl)-5-methoxyphenyl)-6-((1-hydroxy-2-methylpropan-2-yl)amino)-2-(6-azaspiro[2.5]octan-6-yl)nicotinamide], the IC50 worked out at 134 nM.
With `CC(C)(C)NS(=O)(=O)c1cccc(NC(=O)c2ccc(NC(C)(C)CO)nc2N2CCC3(CC2)CC3)c1F` [Example 105-23, N-(3-(N-(tert-butyl)sulfamoyl)-2-fluorophenyl)-6-((1-hydroxy-2-methylpropan-2-yl)amino)-2-(6-azaspiro[2.5]octan-6-yl)nicotinamide] the figure was 177 nM; with `CC(C)(C)NS(=O)(=O)c1cc(Br)cc(NC(=O)c2ccc(NC(C)(C)CO)nc2N2CCC3(CC2)CC3)c1` [Example 105-24, N-(3-bromo-5-(N-(tert-butyl)sulfamoyl)phenyl)-6-((1-hydroxy-2-methylpropan-2-yl)amino)-2-(6-azaspiro[2.5]octan-6-yl)nicotinamide], 143 nM; with `CC(C)(C)NC(=O)c1cccc(NC(=O)c2ccc(NC(C)(C)CO)nc2N2CCC3(CC2)CC3)c1` [Example 105-25, N-(3-(tert-butylcarbamoyl)phenyl)-6-((1-hydroxy-2-methylpropan-2-yl)amino)-2-(6-azaspiro[2.5]octan-6-yl)nicotinamide], 314 nM.
Regarding `CC(C)(CO)Nc1ccc(C(=O)Nc2cccc(N3CCCC3)c2)c(N2CCC3(CC2)CC3)n1` [Example 105-26, 6-((1-hydroxy-2-methylpropan-2-yl)amino)-N-(3-(pyrrolidin-1-yl)phenyl)-2-(6-azaspiro[2.5]octan-6-yl)nicotinamide], the IC50 was 234 nM.
In the case of `CC(C)(CO)Nc1ccc(C(=O)Nc2cccc(N3CCOCC3)c2)c(N2CCC3(CC2)CC3)n1` [Example 105-27, 6-((1-hydroxy-2-methylpropan-2-yl)amino)-N-(3-morpholinophenyl)-2-(6-azaspiro[2.5]octan-6-yl)nicotinamide], the IC50 was determined as 262 nM.
As to `CC(C)(CO)Nc1ccc(C(=O)Nc2cccc(N3CCS(=O)(=O)CC3)c2)c(N2CCC3(CC2)CC3)n1` [Example 105-28, N-(3-(1,1-dioxidothiomorpholino)phenyl)-6-((1-hydroxy-2-methylpropan-2-yl)amino)-2-(6-azaspiro[2.5]octan-6-yl)nicotinamide], the IC50 was 162 nM.
For `Cc1ccc(NC(=O)c2ccc(NC(C)(C)CO)nc2N2CCC3(CC2)CC3)cc1N1CCCC1=O` [Example 105-29, 6-((1-hydroxy-2-methylpropan-2-yl)amino)-N-(4-methyl-3-(2-oxopyrrolidin-1-yl)phenyl)-2-(6-azaspiro[2.5]octan-6-yl)nicotinamide], the IC50 worked out at 279 nM.
For the molecule `Cc1ccc(NC(=O)c2ccc(NC(C)(C)CO)nc2N2CCC3(CC2)CC3)cc1N1CCOCC1` [Example 105-30, 6-((1-hydroxy-2-methylpropan-2-yl)amino)-N-(4-methyl-3-morpholinophenyl)-2-(6-azaspiro[2.5]octan-6-yl)nicotinamide], the half-maximal inhibitory concentration (IC50) was determined as 261 nM.
`C[C@@H]1CN(c2cc(NC(=O)c3ccc(NC(C)(C)CO)nc3N3CCC4(CC3)CC4)ccc2F)CCO1` [Example 105-31, (R)-N-(4-fluoro-3-(2-methylmorpholino)phenyl)-6-((1-hydroxy-2-methylpropan-2-yl)amino)-2-(6-azaspiro[2.5]octan-6-yl)nicotinamide]: the IC50 was found to be 199 nM.
For `C[C@@H]1CN(c2cc(F)cc(NC(=O)c3ccc(NC(C)(C)CO)nc3N3CCC4(CC3)CC4)c2)CCO1` [Example 105-32, (R)-N-(3-fluoro-5-(2-methylmorpholino)phenyl)-6-((1-hydroxy-2-methylpropan-2-yl)amino)-2-(6-azaspiro[2.5]octan-6-yl)nicotinamide], the IC50 was 208 nM.
On to `O=C(Nc1cccc(S(=O)(=O)C2CCCC2)c1)c1ccc(NC(CO)CO)nc1N1CCC2(CC1)CC2` [Example 106, N-(3-(Cyclopentylsulfonyl)phenyl)-6-((1,3-dihydroxypropan-2-yl)amino)-2-(6-azaspiro[2.5]octan-6-yl)nicotinamide], for which the IC50 worked out at 54 nM.
Take `CC1(NS(=O)(=O)c2cccc(NC(=O)c3ccc(NC(CO)CO)nc3N3CCC4(CC3)CC4)c2)CCC1` [Example 106-1, 6-((1,3-dihydroxypropan-2-yl)amino)-N-(3-(N-(1-methylcyclobutyl)sulfamoyl)phenyl)-2-(6-azaspiro[2.5]octan-6-yl)nicotinamide]: the concentration for half-maximal inhibition (IC50) came to 78 nM.
In the case of `CC(C)(C)NS(=O)(=O)c1cccc(NC(=O)c2ccc(NC(CO)CO)nc2N2CCC3(CC2)CC3)c1` [Example 106-2, N-(3-(N-(tert-butyl)sulfamoyl)phenyl)-6-((1,3-dihydroxypropan-2-yl)amino)-2-(6-azaspiro[2.5]octan-6-yl)nicotinamide], the IC50 was 109 nM.
For `CC(CO)(CO)Nc1ccc(C(=O)Nc2cccc(S(=O)(=O)C3CCCC3)c2)c(N2CCC3(CC2)CC3)n1` [Example 106-3, N-(3-(cyclopentylsulfonyl)phenyl)-6-((1,3-dihydroxy-2-methylpropan-2-yl)amino)-2-(6-azaspiro[2.5]octan-6-yl)nicotinamide], the concentration for half-maximal inhibition (IC50) was found to be 39 nM.
`Cc1ccc(NC(=O)c2ccc(NC(C)(CO)CO)nc2N2CCC3(CC2)CC3)cc1S(=O)(=O)C1CCCC1` [Example 106-4, N-(3-(cyclopentylsulfonyl)-4-methylphenyl)-6-((1,3-dihydroxy-2-methylpropan-2-yl)amino)-2-(6-azaspiro[2.5]octan-6-yl)nicotinamide]: the IC50 stood at 40 nM.
On to `CC(C)(C)NS(=O)(=O)c1cccc(NC(=O)c2ccc(NC(C)(CO)CO)nc2N2CCC3(CC2)CC3)c1` [Example 106-5, N-(3-(N-(tert-butyl)sulfamoyl)phenyl)-6-((1,3-dihydroxy-2-methylpropan-2-yl)amino)-2-(6-azaspiro[2.5]octan-6-yl)nicotinamide], for which the IC50 stood at 53 nM.
Consider `CC(CO)(CO)Nc1ccc(C(=O)Nc2cccc(S(=O)(=O)NC3CC3)c2)c(N2CCC3(CC2)CC3)n1` [Example 106-6, N-(3-(N-cyclopropylsulfamoyl)phenyl)-6-((1,3-dihydroxy-2-methylpropan-2-yl)amino)-2-(6-azaspiro[2.5]octan-6-yl)nicotinamide], for which the IC50 was determined as 48 nM.
Turning to `CC(O)(c1ccc(C(=O)Nc2cccc(S(=O)(=O)NC3CC3)c2)c(N2CCC3(CC2)CC3)n1)C(F)(F)F` (centres unmarked) [Example 108-1, N-(3-(N-cyclopropylsulfamoyl)phenyl)-2-(6-azaspiro[2.5]octan-6-yl)-6-(1,1,1-trifluoro-2-hydroxypropan-2-yl)nicotinamide], the IC50 is 52 nM.
For `CC(O)(c1ccc(C(=O)Nc2cccc(S(=O)(=O)C3CCCC3)c2)c(N2CCC3(CC2)CC3)n1)C(F)(F)F` (centres unmarked) [Example 108-2, N-(3-(cyclopentylsulfonyl)phenyl)-2-(6-azaspiro[2.5]octan-6-yl)-6-(1,1,1-trifluoro-2-hydroxypropan-2-yl)nicotinamide] the value was 65 nM; for `CC(C)(C)NS(=O)(=O)c1cccc(NC(=O)c2ccc(NS(C)(=O)=O)nc2N2CCC3(CC2)CC3)c1` [Example 110, N-(3-(N-(tert-butyl)sulfamoyl)phenyl)-6-(methylsulfonamido)-2-(6-azaspiro[2.5]octan-6-yl)nicotinamide], 91 nM; for `Cc1ccc(NC(=O)c2ccc(NC(C)(C)CO)nc2N2CCC3(CC2)CC3)cc1-c1ccoc1` [Example 111-1, N-(3-(furan-3-yl)-4-methylphenyl)-6-((1-hydroxy-2-methylpropan-2-yl)amino)-2-(6-azaspiro[2.5]octan-6-yl)nicotinamide], 265 nM.
For `Cc1ccc(NC(=O)c2ccc(NC(C)(C)CO)nc2N2CCC3(CC2)CC3)cc1-c1ccco1` [Example 111-2, N-(3-(furan-2-yl)-4-methylphenyl)-6-((1-hydroxy-2-methylpropan-2-yl)amino)-2-(6-azaspiro[2.5]octan-6-yl)nicotinamide], the half-inhibitory concentration (IC50) is 277 nM.
On to `Cc1ccc(NC(=O)c2ccc(NC(C)(C)CO)nc2N2CCC3(CC2)CC3)cc1-c1cc[nH]n1` [Example 111-3, 6-((1-hydroxy-2-methylpropan-2-yl)amino)-N-(4-methyl-3-(1H-pyrazol-3-yl)phenyl)-2-(6-azaspiro[2.5]octan-6-yl)nicotinamide], for which the IC50 came to 342 nM.
As for `Cc1ccc(NC(=O)c2ccc(NC(C)(C)CO)nc2N2CCC3(CC2)CC3)cc1-c1nccs1` [Example 111-4, 6-((1-hydroxy-2-methylpropan-2-yl)amino)-N-(4-methyl-3-(thiazol-2-yl)phenyl)-2-(6-azaspiro[2.5]octan-6-yl)nicotinamide], the 50% inhibitory concentration (IC50) came to 349 nM.
With `Cc1coc(-c2cccc(NC(=O)c3ccc(NC(C)(C)CO)nc3N3CCC4(CC3)CC4)c2)n1` [Example 111-5, 6-((1-hydroxy-2-methylpropan-2-yl)amino)-N-(3-(4-methyloxazol-2-yl)phenyl)-2-(6-azaspiro[2.5]octan-6-yl)nicotinamide], the IC50 came out at 225 nM.
On to `Cc1cnc(-c2cccc(NC(=O)c3ccc(NC(C)(C)CO)nc3N3CCC4(CC3)CC4)c2)o1` [Example 111-6, 6-((1-hydroxy-2-methylpropan-2-yl)amino)-N-(3-(5-methyloxazol-2-yl)phenyl)-2-(6-azaspiro[2.5]octan-6-yl)nicotinamide], for which the IC50 came to 135 nM.
